Test results published in article PMC9894685, “Abscisic acid agonists suitable for optimizing plant water use” (Frontiers in Plant Science, 2023).

Key:
Arabidopsis plants = assay: Foliar administration and thermal imaging of leaf temperature (transpiration), Arabidopsis; assay type: in vivo, Arabidopsis thaliana
[1] = tested on: Arabidopsis aba2-1 protoplasts; assay: Transient ABA response in Arabidopsis protoplasts (pRD29B::LUC, RCAR11 and ABI2 effectors); assay type: cell-based, Arabidopsis thaliana; conditions: aba2-1 protoplasts, 18 h ligand exposure
Procedure: Preparation of Arabidopsis protoplasts, transfection of the effector DNA, and analysis of LUC activity were performed as described ([Tischer et al., 2017]). In essence, 10^5 mesophyll protoplasts from leaves of the ABA deficient mutant aba2-1 ([Schwartz et al., 1997]) were transfected with 4 µg DNA of the pRD29B::LUC construct as an ABA-responsive reporter and 3 µg of p35S::GUS (β-glucuronidase reporter gene) expression cassette as an internal control for normalization. In addition, 3 µg p35S::RCAR11 or the empty vector with the same expression cassette were co-expressed with 0.1 µg p35S::ABI2 effector constructs ([Tischer et al., 2017]), and the ligand-dependent induction of ABA-responsive reporter expression were assessed after incubation at 22°C. The expression of LUC and GUS was determined 18 h after transfection and ligand administration.

RCAR1-ABI2 = target: T1, RCAR1-ABI2 (Arabidopsis thaliana, UniProt O04719+Q84MC7); assay: In vitro phosphatase assay, ABI2 with RCAR1; assay type: biochemical; conditions: for Statistical significance of RCAR1-mediated inhibition of ABI2 phosphatase activity vs ABA / Statistical significance of RCAR1-mediated inhibition of ABI2 phosphatase activity vs CCP1: Fig. 3B
T1 construct: 6xHis (N); made in house; host or cells: Escherichia coli BL21
T1 sequence (Q84MC7 1-187): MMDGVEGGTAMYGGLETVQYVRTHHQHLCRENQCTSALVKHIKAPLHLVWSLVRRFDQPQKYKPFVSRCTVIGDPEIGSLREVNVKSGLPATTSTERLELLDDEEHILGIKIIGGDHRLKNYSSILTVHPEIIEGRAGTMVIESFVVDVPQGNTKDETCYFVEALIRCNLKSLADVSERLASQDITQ
T1 sequence (O04719 1-423): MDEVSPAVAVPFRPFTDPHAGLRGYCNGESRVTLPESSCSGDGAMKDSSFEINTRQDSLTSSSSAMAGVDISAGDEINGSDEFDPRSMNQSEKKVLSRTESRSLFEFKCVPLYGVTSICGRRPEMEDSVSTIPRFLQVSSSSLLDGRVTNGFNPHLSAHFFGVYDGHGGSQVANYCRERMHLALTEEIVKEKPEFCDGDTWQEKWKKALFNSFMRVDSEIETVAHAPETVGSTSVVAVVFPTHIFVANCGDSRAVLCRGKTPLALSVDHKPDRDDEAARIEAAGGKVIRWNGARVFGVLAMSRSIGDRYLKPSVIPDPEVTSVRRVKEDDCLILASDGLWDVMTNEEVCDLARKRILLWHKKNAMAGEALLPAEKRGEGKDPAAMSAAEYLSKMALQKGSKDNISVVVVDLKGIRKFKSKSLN
Procedure: Expression, purification, and analysis of RCAR and PP2C proteins were performed essentially as described ([Ruschhaupt et al., 2019]). Briefly, the ABA receptors RCAR1, RACR8, and RCAR11 were expressed with an aminoterminal histidine tag using the pSEVA431_LII_6xHIS::RCAR1/RCAR8/RCAR11. ABA coreceptors were expressed as histidine-tagged fusions with the maltose-binding protein using the pSEVA431_LII_6xHIS::MBP::ABI2/HAB1. All constructs were transformed and expressed in Escherichia coli strain BL21 and purified to homogeneity according to supplier’s instruction (GE Healthcare, Chicago, USA). The receptor assay was performed with 100 nM PP2C and a two-fold molar excess of RCAR. Values are means ± SD of three replicates. […] The maximum inhibition was set to 100% in the figures. The phosphatase activity was measured using 4-methylumbelliferyl-phosphate as a substrate ([Meinhard and Grill, 2001]). The increase in fluorescence was recorded over 25 min with excitation and emission wavelengths at 360 and 460 nm, respectively, using a Synergy 2 plate reader (Bio-Tec, Winooski, USA).

**Q.** With CCC(=C/C(=O)O)/C=C/C(O)(C(C)C)C1(C#N)CC1 (stereo not shown) [CCP2] as the compound, how does the “Efficiency in minimizing transpiration compared to ABA” value (Arabidopsis plants; foliar application) read?
**A.** Its value is “by an order of magnitude more efficient than ABA”.

**Q.** What about the “ABA concentration achieving a temperature increase similar to 10 µM of the CCP” value (Arabidopsis plants; one day after application) of the same compound?
**A.** Its value is “about 100 µM”.

**Q.** And the “Activity and persistence of minimized transpiration compared to ABA” value (Arabidopsis plants; single application 100 µM, recorded for 19 days)?
**A.** The value was “more active and persistent than ABA”.

**Q.** What about the “Induction of ABA signaling compared to ABA” value [1] of the same compound?
**A.** The value was “ABA-like activity”.

**Q.** And the “Statistical significance of RCAR1-mediated inhibition of ABI2 phosphatase activity vs ABA” value (RCAR1-ABI2; 0.003 µM)?
**A.** The value was “ns (Otherwise, the difference is regarded as insignificant indicated as “ns”)”.

**Q.** And the “Statistical significance of RCAR1-mediated inhibition of ABI2 phosphatase activity vs CCP1” value (RCAR1-ABI2; 0.003 µM)?
**A.** The value was “ns (Otherwise, the difference is regarded as insignificant indicated as “ns”)”.

**Q.** And the “Statistical significance of RCAR1-mediated inhibition of ABI2 phosphatase activity vs ABA” value (RCAR1-ABI2; 0.01 µM)?
**A.** The value was “ns (Otherwise, the difference is regarded as insignificant indicated as “ns”)”.

**Q.** What about the “Statistical significance of RCAR1-mediated inhibition of ABI2 phosphatase activity vs CCP1” value (RCAR1-ABI2; 0.01 µM) of the same compound?
**A.** The value was “ns (Otherwise, the difference is regarded as insignificant indicated as “ns”)”.

**Q.** And the “Statistical significance of RCAR1-mediated inhibition of ABI2 phosphatase activity vs ABA” value (RCAR1-ABI2; 0.03 µM)?
**A.** The value was “s (P < 0.05 (one-way ANOVA) is considered as a significant difference and expressed as “s”)”.

**Q.** And the “Statistical significance of RCAR1-mediated inhibition of ABI2 phosphatase activity vs CCP1” value (RCAR1-ABI2; 0.03 µM)?
**A.** The value was “ns (Otherwise, the difference is regarded as insignificant indicated as “ns”)”.

**Q.** And the “Statistical significance of RCAR1-mediated inhibition of ABI2 phosphatase activity vs ABA” value (RCAR1-ABI2; 0.1 µM)?
**A.** The value was “s (P < 0.05 (one-way ANOVA) is considered as a significant difference and expressed as “s”)”.

**Q.** What about the “Statistical significance of RCAR1-mediated inhibition of ABI2 phosphatase activity vs CCP1” value (RCAR1-ABI2; 0.1 µM) of the same compound?
**A.** Its value is “s (P < 0.05 (one-way ANOVA) is considered as a significant difference and expressed as “s”)”.

**Q.** And the “IC50 relative to ABA (fold higher)” value (RCAR1-ABI2; 100 nM ABI2 and 200 nM RCAR1)?
**A.** Its value is “approximately 100 fold”.

**Q.** What about the “Statistical significance of RCAR1-mediated inhibition of ABI2 phosphatase activity vs ABA” value (RCAR1-ABI2; 0.3 µM) of the same compound?
**A.** The value was “s (P < 0.05 (one-way ANOVA) is considered as a significant difference and expressed as “s”)”.

**Q.** What about the “Statistical significance of RCAR1-mediated inhibition of ABI2 phosphatase activity vs CCP1” value (RCAR1-ABI2; 0.3 µM) of the same compound?
**A.** The value was “s (P < 0.05 (one-way ANOVA) is considered as a significant difference and expressed as “s”)”.

**Q.** And the “Statistical significance of RCAR1-mediated inhibition of ABI2 phosphatase activity vs ABA” value (RCAR1-ABI2; 1 µM)?
**A.** The value was “s (P < 0.05 (one-way ANOVA) is considered as a significant difference and expressed as “s”)”.

**Q.** And the “Statistical significance of RCAR1-mediated inhibition of ABI2 phosphatase activity vs CCP1” value (RCAR1-ABI2; 1 µM)?
**A.** Its value is “ns (Otherwise, the difference is regarded as insignificant indicated as “ns”)”.

**Q.** What about the “Statistical significance of RCAR1-mediated inhibition of ABI2 phosphatase activity vs ABA” value (RCAR1-ABI2; 3 µM) of the same compound?
**A.** The value was “s (P < 0.05 (one-way ANOVA) is considered as a significant difference and expressed as “s”)”.

**Q.** And the “Statistical significance of RCAR1-mediated inhibition of ABI2 phosphatase activity vs CCP1” value (RCAR1-ABI2; 3 µM)?
**A.** Its value is “ns (Otherwise, the difference is regarded as insignificant indicated as “ns”)”.

**Q.** What about the “Statistical significance of RCAR1-mediated inhibition of ABI2 phosphatase activity vs ABA” value (RCAR1-ABI2; 10 µM) of the same compound?
**A.** The value was “s (P < 0.05 (one-way ANOVA) is considered as a significant difference and expressed as “s”)”.

**Q.** What about the “Statistical significance of RCAR1-mediated inhibition of ABI2 phosphatase activity vs CCP1” value (RCAR1-ABI2; 10 µM) of the same compound?
**A.** Its value is “ns (Otherwise, the difference is regarded as insignificant indicated as “ns”)”.

**Q.** And the “Statistical significance of RCAR1-mediated inhibition of ABI2 phosphatase activity vs ABA” value (RCAR1-ABI2; 30 µM)?
**A.** The value was “s (P < 0.05 (one-way ANOVA) is considered as a significant difference and expressed as “s”)”.

**Q.** And the “Statistical significance of RCAR1-mediated inhibition of ABI2 phosphatase activity vs CCP1” value (RCAR1-ABI2; 30 µM)?
**A.** Its value is “ns (Otherwise, the difference is regarded as insignificant indicated as “ns”)”.

**Q.** And the “Statistical significance of RCAR1-mediated inhibition of ABI2 phosphatase activity vs ABA” value (RCAR1-ABI2; 100 µM)?
**A.** The value was “s (P < 0.05 (one-way ANOVA) is considered as a significant difference and expressed as “s”)”.

**Q.** And the “Statistical significance of RCAR1-mediated inhibition of ABI2 phosphatase activity vs CCP1” value (RCAR1-ABI2; 100 µM)?
**A.** Its value is “ns (Otherwise, the difference is regarded as insignificant indicated as “ns”)”.
